According to patent publication US7094754B2, “Anti-aging and wound healing compounds” (Kimberly-Clark Worldwide, Inc., priority 2001, dated 2006):

Columns and labels:
[1] = tested on: wounds in C57BL6/KsJ db/db mice; test: Wound healing in db/db diabetic mice; assay type: in vivo
Excerpt: Wounds were created in C57BL6/KsJ db/db mice with a 4 mm biopsy punch. The mice were obtained from The Jackson Laboratories and were aged 3-7 months before the onset of the wounding protocol. All mice were anesthetized prior to wounding. Two wounds were introduced onto the upper back of each animal by pulling the skin away from underlying structures and pushing the punch through the isolated skin. Typically, wounds were created to an average depth of 1.7 mm, with a range of 1.3 to 2.2 mm. No muscle involvement occurred during the course of wounding.
Each day the wounds were digitally photographed and wound areas were determined by computer integration of the photographs. All wound treatments and the subsequent data analyses were performed in a blind manner (see e.g., Brown et al., 1994). Wound area at the time of wounding (day 0) is arbitrarily set to a relative value of 1 for all wounds; such that subsequent wound areas are converted to relative wound areas by dividing the wound area at day n by the wound area at day zero.

[2] = tested on: normal human dermal fibroblasts (NHDF); test: NHDF migration assay (48-well chemotaxis chamber); assay type: cell-based
Procedure: Normal, human dermal fibroblasts (NHDF) were obtained from Biowhittaker, (Walkersville, Md.) and propagated in T75 flasks in FBM media (500 mL, Biowhittaker) containing insulin, hFGF-b, GA-1000, and fetal bovine serum (10 mL) for up to 12 passages. For the migration assay, NHDF were washed once with 10 mL of Hank's buffered saline solution (HBSS). Three milliliters of trypsin (0.25%) in EDTA were added to the T75 flask for no more than five minutes to remove NHDF from the flask. NHDF in trypsin solution were added to 7 mL of FBM with no supplements added. NHDF were centrifuged for 5 minutes, and the supernatant was removed. NHDF were resuspended in 10 mL of FBM for counting. NHDF were centrifuged for another 5 minutes, and the supernatant was removed. NHDF were resuspended at 1×10^6 cells per mL in FBM without supplements. It was important to use FBM media only in migration assays because the complete media contains fibroblast growth factor and serum, both of which will trigger migration of fibroblasts.
Peptides were synthesized and purified by the Microchemical Facility at Emory University or by SigmaGenesis. All peptides were analyzed by mass spectrometry after HPLC to assess purity. Approximately 0.5–2.0 milligrams of peptide were used to make fresh stock solutions (5 mg/mL in PBS) for each migration assay. The peptide stock solutions in PBS were used to make more dilute solutions (1 mg/mL, 100 μg/mL, 10 μg/mL, 1 μg/mL, 100 ng/mL, 10 ng/mL) in FBM (without supplements) for the migration assays.
Polyvinylpyrrolidone-free polycarbonate membranes with […] pores (Neuroprobe, Inc., Gaithersburg, Md.) were washed with 90% ethanol for 15 minutes and rinsed four times with deionized water. Membranes were then placed into a glass dish containing an aqueous solution of 5 μg/mL gelatin. The glass dish was placed in to a water bath at about 90° C. for one hour. Membranes were removed from the gelatin solution and were allowed to dry for one hour in the 37° C. incubator.
A 48-well chemotaxis chamber (Neuroprobe, Inc., Gaithersburg, Md.) (see FIG. 20) was used for the migration assays. Twenty-eight/μL of each test solution were added to the bottom wells of the chamber in quadruplicate. A gelatin-treated membrane was placed carefully on top of the bottom wells. The gasket and top part of chamber were then placed carefully on top of the membrane. The apparatus was tightened using six thumbscrews. A solution of NHDF containing an estimated cell density (2×10^5 cells per mL) was made by adding 320 μL of the 1×10^6 cells per mL solution to 1.28 mL of FBM (no supplements). Fifty microliters of the 2×10^5 cells per mL NHDF solution were added to the top part of each well in the chamber. The chamber was placed in the incubator at 37° C./5% CO2 for three hours. The chamber was removed, the thumbscrews were removed, and the chamber was turned upside down on a paper towel. […] The membrane was carefully removed. […] The membrane was fixed with methanol and stained using the Diff-Quik Staining Solutions I and II. The nuclei of NHDF are stained purple. The membrane was mounted on a glass slide using cedarwood immersion oil and a cover slip. […] The average number of migrated NHDF in the negative control was subtracted from the experimental (peptide) data and positive control data.

[3] = Viability assay (MTT) in EpiDerm skin model; assay type: cell-based; settings: human, EpiDerm skin model (MatTek), relative to PBS control, average over 500 μM and 2 mM, read-out: total average viability
Excerpt: FIG. 16 provides a bar graph showing the percent living cells, relative to a positive control, in a skin model after treatment with two concentrations of peptide. The first sample, treated with phosphate buffered saline (PBS), is the positive control used to establish the cell count representing 100% viability. The second sample is a negative control where cells were exposed to 1% Triton-X100, showing that the assay can detect cell death. […] Data shown represent the average of three tests.
The sample containers were transferred to 6 well plates that contained fresh media. All peptides were dissolved in PBS at a final concentration of 10 mM, and 100 μL each peptide solution was pipetted onto the surface of the Epiderm sample container. Incubation was continued for 12 hours at 37° C., 5% CO2. After the incubation period, the sample containers were washed three times with PBS and the sample containers were transferred to a 24 well plate that contained 300 μL of MTT assay media per well (MTT concentration was 1 mg/mL). The colorimetric assay was allowed to develop for three hours (incubation at 37° C., 5% CO2). Sample containers were then transferred to a 24 well culture plate that contained 2 mL of isopropanol per well. Extraction of the colored precipitate occurred over a period of four hours at room temperature. Absorbance readings were taken at 570 nm and 650 nm for each sample. The percent viability of each sample relative to a PBS control was calculated as: 100×(OD570^sam−OD650^sam)/(OD570^con−OD650^con) (6) Routinely, the peptide sample was assayed in triplicate. Results The sequence of matrix metalloproteinase-2 (SEQ ID NO:14) is provided below to facilitate definition of the various domains and regions in matrix metalloproteinases.

In the case of `CC(C)[C@H](NC(=O)[C@H](CC(=O)O)NC(=O)[C@@H]1CCCN1C(=O)[C@H](CC(N)=O)NC(=O)CNC(=O)[C@H](CS)NC(=O)[C@H](CCCNC(=N)N)NC(=O)[C@@H]1CCCN1)C(=O)N[C@@H](C)C(=O)N[C@@H](CC(N)=O)C(=O)N[C@@H](Cc1ccc(O)cc1)C(=O)N[C@@H](CC(N)=O)C(=O)N[C@@H](Cc1ccccc1)C(=O)N[C@@H](Cc1ccccc1)C(=O)N1CCC[C@H]1C(=O)N[C@@H](CCCNC(=N)N)C(=O)N[C@@H](CCCCN)C(=O)N1CCC[C@H]1C(=O)N[C@@H](CCCCN)C(=O)O` [19-mer], the “time to full wound closure (average)” value ([1]; single dose 5 μL of 20 μg/mL at time of wounding, saline control 14 days) is reported as 9 days post wounding, the “start of wound contraction process” value ([1]; single dose 5 μL of 20 μg/mL, saline control day 8) is reported as 5 days and the “percent of migrated NHDF compared to plasma fibronectin positive control” value (“percent of migrated NHDF” below) ([2]; 100 μg/mL peptide, three hours) is reported as 46%±3%. For the same molecule, the “percent of migrated NHDF” value ([2]; 100 μg/mL peptide, three hours, listed as 19-mer peptide) was 46±3%, the “percent of migrated NHDF” value ([2]; 1000 μg/mL peptide, three hours) was 55%±3% and the “percent of migrated NHDF” value ([2]; 1000 μg/mL peptide, three hours, listed as 19-mer peptide) was 55±3%. The “percent of migrated NHDF” value ([2]; concentrations below 100 μg/mL) was “about 20%” and the viability at 12 h [3] was 97.6%.
